Experimental data reported in the supplement of paper PMC10307832.

Columns and labels:
Experiment in all cases: relative viability (nuclei count vs DMSO), 5 days (fraction); higher = more cells survive
[1] = compound: Nc1ccccc1NC(=O)c1ccc(CNC(=O)OCc2cccnc2)cc1 [Entinostat] + O=C(c1cc(Cc2n[nH]c(=O)c3ccccc23)ccc1F)N1CCN(C(=O)C2CC2)CC1 [Olaparib] (partner 8 µM)
Method in brief: (§1)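 Nuclei were stained with Hoechst during a one-step fixation (final 0.05% Triton X-100, 1% formaldehyde, 1 ug/ml Hoechst) carried out 5 days after dosing, then counted on 4× images. The cells, lung cancer lines in 1536-well plates, had been dosed by pin tool the day after seeding with one drug alone or a fixed anchor-drug dose plus five library-drug doses (not always all listed) in √10 steps. Relative viability is the nuclei count in treated wells divided by that in vehicle wells, and each value is the median of duplicate plates.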

[2] = compound: Nc1ccccc1NC(=O)c1ccc(CNC(=O)OCc2cccnc2)cc1 [Entinostat] + Cc1cc(Nc2cc(N3CCN(C)CC3)nc(Sc3ccc(NC(=O)C4CC4)cc3)n2)n[nH]1 [Tozasertib] (partner 0.1 µM)
Method in brief: as §1

[3] = compound: C1COCCN1C2=NC(=NC3=C2OC4=C3C=CC=N4)C5=CC(=CC=C5)NC(=O)C6=CN=C(C=C6)N + Nc1nc2[nH]cc(CCc3ccc(C(=O)N[C@@H](CCC(=O)O)C(=O)O)cc3)c2c(=O)[nH]1 [Pemetrexed] (partner 0.2 µM)
Method in brief: as §1

[4] = compound: C1COCCN1C2=NC(=NC3=C2OC4=C3C=CC=N4)C5=CC(=CC=C5)NC(=O)C6=CN=C(C=C6)N + O=C(CCCCCCC(=O)Nc1ccccc1)NO [Vorinostat] (partner 1 µM)
Method in brief: as §1

Row | Cell Line | relative viability ([1]; first compound 0.02 µM) | relative viability ([1]; first compound 0.06325 µM) | relative viability ([1]; first compound 0.2 µM) | relative viability ([1]; first compound 0.6325 µM) | relative viability ([1]; first compound 2 µM) | relative viability ([2]; first compound 0.02 µM) | relative viability ([2]; first compound 0.06325 µM) | relative viability ([2]; first compound 0.2 µM) | relative viability ([2]; first compound 0.6325 µM) | relative viability ([2]; first compound 2 µM) | relative viability ([3]; first compound 0.02 µM) | relative viability ([3]; first compound 0.06325 µM) | relative viability ([3]; first compound 0.2 µM) | relative viability ([3]; first compound 0.6325 µM) | relative viability ([3]; first compound 2 µM) | relative viability ([4]; first compound 0.02 µM) | relative viability ([4]; first compound 0.06325 µM) | relative viability ([4]; first compound 0.2 µM) | relative viability ([4]; first compound 0.6325 µM) | relative viability ([4]; first compound 2 µM)
1 | NCI-H2405 | 0.843 | 0.895 | 0.861 | 0.72 | 0.623 | 0.736 | 0.78 | 0.607 | 0.524 | 0.319 | 1.04 | 1.11 | 1.03 | 0.968 | 0.989 | 1.07 | 1.07 | 1.03 | 0.921 | 0.645
2 | HCC-44 | 0.957 | 0.906 | 0.93 | 0.875 | 0.7 | 0.898 | 0.581 | 0.553 | 0.309 | 0.221 | 0.616 | 0.639 | 0.676 | 0.682 | 0.653 | 1.03 | 1.15 | 1.2 | 1.22 | 1.02
3 | HCC-78 | 0.771 | 0.722 | 0.577 | 0.386 | 0.355 | 0.577 | 0.432 | 0.248 | 0.241 | 0.173 | 0.913 | 0.944 | 0.926 | 0.929 | 0.64 | 0.444 | 0.5 | 0.431 | 0.326 | 0.334
4 | COR-L23 | 0.323 | 0.311 | 0.347 | 0.184 | 0.127 | 0.159 | 0.19 | 0.198 | 0.0831 | 0.0903 | 0.202 | 0.204 | 0.194 | 0.162 | 0.167 | 0.517 | 0.525 | 0.458 | 0.403 | 0.381
5 | NCI-H2009 | 0.673 | 0.695 | 0.639 | 0.486 | 0.434 | 0.713 | 0.753 | 0.647 | 0.452 | 0.336 | 1.07 | 1.05 | 1.07 | 1.01 | 0.849 | 0.697 | 0.82 | 0.73 | 0.7 | 0.739
6 | NCI-H3122 | 0.653 | 0.622 | 0.604 | 0.517 | 0.452 | 0.334 | 0.36 | 0.479 | 0.275 | 0.102 | 0.207 | 0.199 | 0.183 | 0.186 | 0.183 | 0.924 | 1.09 | 0.946 | 1.06 | 0.639
7 | NCI-H2228 | 0.633 | 0.749 | 0.613 | 0.254 | 0.176 | 0.258 | 0.142 | 0.207 | 0.0934 | 0.11 | 0.348 | 0.345 | 0.299 | 0.26 | 0.144 | 0.469 | 0.743 | 0.464 | 0.529 | 0.39
8 | NCI-H1944 | 0.373 | 0.323 | 0.216 | 0.177 | 0.172 | 0.224 | 0.215 | 0.204 | 0.162 | 0.132 | 0.65 | 0.719 | 0.589 | 0.64 | 0.545 | 0.533 | 0.65 | 0.5 | 0.485 | 0.477
